Drawing on patent publication US20230287138A1, “PROTEIN-DRUG CONJUGATES COMPRISING CAMPTOTHECIN ANALOGS AND METHODS OF USE THEREOF” (Regneron Pharmaceuticals, Inc., priority 2022, published 2023), this text covers EC50 for seven molecules.

Counter-ions that a name gives are not always drawn. Like-named read-outs stand apart in the source and are kept apart here.

The experiment has as its system HCT-15. Nature of the experiment: HCT-15 data of payloads and linker-payloads (EC50, with or without verapamil). Format: cell-based.
Setting [1] is: Homo sapiens, linker-payload, HCT-15 cells, read-out: HCT-15 EC50.
[2] abbreviates: Homo sapiens, payload, HCT-15 cells, no verapamil, read-out: HCT-15 EC50.
[3] abbreviates: payload, HCT-15 cells plus verapamil, read-out: HCT-15 + verapamil EC50.

Regarding `CC[C@@]1(O)C(=O)OCc2c1cc1n(c2=O)Cc2c-1nc1cc(F)c(C)c3c1c2[C@@H](NC(=O)COCNC(=O)OCc1ccc(NC(=O)[C@H](C)NC(=O)[C@@H](NC(=O)CCOCCOCCOCCOCCNC(=O)COC2C#CCCCCC2)C(C)C)cc1)CC3` (stereo partly drawn) [LP15, {4-[(2S)-2-[(2S)-2-{1-[2-(cyclooct-2-yn-1-yloxy)acetamido]-3,6,9,12-tetraoxapentadecan-15-amido}-3-methylbutanamido]propanamido]phenyl}methyl N-[({[(10S,23S)-10-ethyl-18-fluoro-10-hydroxy-19-methyl-5,9-dioxo-8-oxa-4,15-diazahexacyclo[14.7.1.0^2,^14.0^4,^13.0^6,^11.0^20,^24]tetracosa-1,6(11),12,14,16,18,20(24)-heptaen-23-yl]carbamoyl}methoxy)methyl]carbamate], under setting [1], the EC50 was 96.9 nM.

For the molecule `CC[C@@]1(O)C(=O)OCc2c1cc1n(c2=O)Cc2c-1nc1cc(F)c(C)c3c1c2[C@@H](NC(=O)OCc1ccc(O[C@@H]2O[C@H](CO)[C@@H](O)[C@H](O)[C@H]2O)c(C(=O)NCCOCCOCCNC(=O)CCOCC(COCCC(=O)NCCOCCOCCNC(=O)c2cc(COC(=O)N[C@H]4CCc5c(C)c(F)cc6nc7c(c4c56)Cn4c-7cc5c(c4=O)COC(=O)[C@]5(O)CC)ccc2O[C@@H]2O[C@H](CO)[C@@H](O)[C@H](O)[C@H]2O)NC(=O)CCOCCOCCNC(=O)COC2C#CCCCCC2)c1)CC3` (stereo partly drawn) [LP16], under setting [1], the EC50 worked out at 140 nM.

On to `CC[C@@]1(O)C(=O)OCc2c1cc1n(c2=O)Cc2c-1nc1cc(F)c(C)c3c1c2[C@@H](N)CC3` [P1, Exatecan mesylate, reference compound], for which the EC50 by setting is: under setting [2], 1.22 nM; under setting [3], 1.13 nM.

Regarding `CC[C@@]1(O)C(=O)OCc2c1cc1n(c2=O)Cc2c-1nc1cc(F)c(C)c3c1c2[C@@H](NC(=O)CN)CC3` [P2, 2-Amino-N-[(10S,23S)-10-ethyl-18-fluoro-10-hydroxy-19-methyl-5,9-dioxo-8-oxa-4,15-diazahexacyclo[[14.7.1.0^2,^14.0^4,^13.0^6,^11.0^20,^24]]tetracosa-1,6(11),12,14,16,18,20(24)-heptaen-23-yl]acetamide], the EC50 under setting [2] turned out to be 61.9 nM and the EC50 under setting [3] was 14.3 nM.

Turning to `CC[C@@]1(O)C(=O)OCc2c1cc1n(c2=O)Cc2c-1nc1cc(F)c(C)c3c1c2[C@@H](NC(=O)[C@@H](N)CCC(=O)O)CC3` [P3, (4S)-4-amino-4-{[(10S,23S)-10-ethyl-18-fluoro-10-hydroxy-19-methyl-5,9-dioxo-8-oxa-4,15-diazahexacyclo[[14.7.1.0^2,^14.0^4,^13.0^6,^11.0^20,^24]]tetracosa-1,6(11),12,14,16,18,20(24)-heptaen-23-yl]carbamoyl}butanoic acid], the EC50 by setting is: under setting [2], 610 nM; under setting [3], 596 nM.

`CC[C@@]1(O)C(=O)OCc2c1cc1n(c2=O)Cc2c-1nc1cc(F)c(C)c3c1c2[C@@H](NC(=O)[C@@H](N)CCCCN)CC3` [P4, (2S)-2,6-diamino-N-[(10S,23S)-10-ethyl-18-fluoro-10-hydroxy-19-methyl-5,9-dioxo-8-oxa-4,15-diazahexacyclo[[14.7.1.0^2,^14.0^4,^13.0^6,^11.0^20,^24]]tetracosa-1,6(11),12,14,16,18,20(24)-heptaen-23-yl]hexanamide]: the EC50 reads like this: under setting [2], 447 nM; under setting [3], 581 nM.

`CC[C@@]1(O)C(=O)OCc2c1cc1n(c2=O)Cc2c-1nc1cc(F)c(C)c3c1c2[C@@H](NC(=O)[C@@H](N)Cc1ccccc1)CC3` [P5, (2S)-2-amino-N-[(10S,23S)-10-ethyl-18-fluoro-10-hydroxy-19-methyl-5,9-dioxo-8-oxa-4,15-diazahexacyclo[[14.7.1.0^2,^14.0^4,^13.0^6,^11.0^20,^24]]tetracosa-1,6(11),12,14,16,18,20(24)-heptaen-23-yl]-3-phenylpropanamide]: the EC50 under setting [2] is 48.2 nM and the EC50 under setting [3] was 4.2 nM.
